What was measured:
[1] = test system: LPS-induced NF-κB-dependent transcription; test: Luciferase assay of organs extracted from LPS-treated NF-κB::Luc mice; type: in vivo, mouse
Description: For luciferase assays, organs were extracted and snap-frozen in liquid nitrogen. All tissue samples were placed in lysis buffer with inhibitors (Passive Lysis Buffer (Promega) and Complete Mini Protease Inhibitor Cocktail (Roche, Indianapolis, Ind.)), and were homogenized using a Handishear hand-held tissue homogenizer (VirTis, Gardiner, N.Y.). Tissue homogenates were centrifuged and clarified lysates were used for luminometer assays and western blots. For the luminometer assays, Luciferase Assay Substrate (Luciferase Assay System, Promega) was prepared as indicated by the manufacturer and placed in disposable cuvettes. […] Background luminescence readings were obtained and the background readings were subtracted from the luminescent data. Protein concentrations were determined using the BCA Protein Assay Kit (Pierce, Rockford, Ill.) following the manufacturer's protocols and analyzed using a VERSAmax tunable microplate reader and associated Softmax Pro version 3.1.2 software (Molecular Devices, Sunnyvale Calif.). The luminescence for each of the protein lysates was calculated as arbitrary units of light per microgram of protein. […]
GL1001 was further tested for in vivo anti-inflammatory activity by examining its effects on bacterial LPS-induced NF-κB dependent transcription in NF-κB::Luc mice. […] Luciferase signal was quantitated from several regions of interest. […]

gastric PGE2 = test: Acute diclofenac-induced gastric toxicity in rats: gastric PGE2 concentration; type: in vivo, rat; details: Group C: GL1001 oral before diclofenac 50 mg/kg; vehicle/vehicle Group A 43.22 ± 12.13
Method: Male Wistar rats were deprived of food but not water for 16 hours prior to oral administration of GL1001 90 mg/kg, incubated for 30 minutes and then given oral diclofenac 50 mg/kg. Each group consisted of 6 rats. As a negative control, one group received vehicle pretreatment, and then received vehicle instead of diclofenac. A positive control group received PGE2 100 μg/kg orally, 30 minutes prior to administration of diclofenac. All treatments were administered by oral gavage.
Three hours after diclofenac treatment, all animals were sacrificed and stomachs were removed and imaged to determine the severity of gastric damage. Additionally, stomach tissue samples were taken to assess disease activity and pharmacodynamic effects. Gastric damage scores were determined from photographic images (Ma & Wallace (2003) Am. J. Physiol. Gastrointest. Liver Physiol. 279; 341-346). Removed stomachs were opened along the greater curvature, pinned out on a wax block, and photographed along a 25 mm ruler reference with a digital 35 mm camera. The lesion area was then determined using enlarged images and computer software (www.scioncorp.co/pages/scion_image_windows.htm) that allows superimposed drawing of the perimeter of a wound and calculation of the area based on the ruler reference. Stomach samples (excluding forestomach) were used for measurements of PGE2 concentration, MPO activity and ACE2 activity. […] Concentration of PGE2 from stomach tissue samples was performed as described by Souza et al. (2003), supra, and quantification was obtained by LC-MS. […] Last, the extent of inhibition of ACE2 activity was determined to establish whether GL1001 was effective in inhibiting its ACE2 target in stomach tissues. The ACE2 activity assay is similar to the method of Vickers et al. (2002) J. Biol. Chem. 277:14838-14843, wherein purified recombinant ACE2 (100 pM) and a quenched fluorescent substrate (100-150 μM APK (7-methoxycoumarin-4-yl)acetyl-Ala-Pro-Lys (2,4-dinitrophenyl)) are used in end-point fluorescence reactions (excitation 320 nm, emission 405 nm). […]
Data are expressed as means with standard errors. […]

With `CC(C)C[C@H](N[C@@H](Cc1cncn1Cc1cc(Cl)cc(Cl)c1)C(=O)O)C(=O)O` [GL1001, (S,S)-2-[1-carboxy-2-[3-(3,5-dichlorobenzyl)-3H-imidazol-4-yl]-ethylamino]-4-methylpentanoic acid] as the compound, how does the “reduction of LPS-induced NF-κB-dependent transcription in stomachs” value ([1]; 0.5 mg/kg LPS and GL1001 30 mg/kg vs LPS alone, FIG. 5) read?
Its value is “about 37 fold”.

What about the “decrease in LPS-induced NF-κB signaling in other organs” value ([1]; 0.5 mg/kg LPS and GL1001 30 mg/kg, pancreas, uterus, liver, kidney, spleen, small and large intestine, lymph nodes, cecum, ovary, brain, heart, lung) of the same compound?
Its value is “no statistically significant decrease”.

What about the “Gastric PGE2 concentration” value (gastric PGE2) of the same compound?
Its value is 0 pg/mg.

Source: patent US20100035848A1, “THERAPY FOR DISORDERS OF THE PROXIMAL DIGESTIVE TRACT” (priority 2008, published 2010)
